Results reported in patent US8901315B2, “Thienopyrazole derivative having PDE7 inhibitory activity” (Daiichi Sankyo Company, Limited, priority 2004, dated 2014).

Key:
[1] = molecular target: PDE 4 (phosphodiesterase IV); experiment: PDE 4 inhibiting effect (3H-cAMP hydrolysis, PDE 4 active fraction from Balb/c mouse liver); type: biochemical; conditions: PDE 4 fraction from Balb/c mice liver, 0.064 μM cAMP, 2 hours at 25° C.; read-out: PDE4 IC50
Method in brief: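 PDE4 was taken from the soluble liver fraction of male Balb/c mice (12 weeks), purified on DEAE sepharose with a sodium acetate gradient. Inhibition was measured as hydrolysis of 3H-cAMP. The reaction was followed by Sephadex-QAE treatment in HEPES-Na pH 7.0.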

[2] = molecular target: PDE 7 (phosphodiesterase VII) (Homo sapiens (Human), UniProt Q13946); experiment: PDE 7 inhibiting effect (3H-cAMP hydrolysis, PDE 7 active fraction from MOLT-4 cells); type: biochemical; conditions: PDE 7 fraction from MOLT-4 cells, 0.064 μM cAMP, 10 μM rolipram, 2 hours at 25° C.; read-out: PDE7 IC50
PDE 7 (phosphodiesterase VII), sequence (Q13946 whole entry): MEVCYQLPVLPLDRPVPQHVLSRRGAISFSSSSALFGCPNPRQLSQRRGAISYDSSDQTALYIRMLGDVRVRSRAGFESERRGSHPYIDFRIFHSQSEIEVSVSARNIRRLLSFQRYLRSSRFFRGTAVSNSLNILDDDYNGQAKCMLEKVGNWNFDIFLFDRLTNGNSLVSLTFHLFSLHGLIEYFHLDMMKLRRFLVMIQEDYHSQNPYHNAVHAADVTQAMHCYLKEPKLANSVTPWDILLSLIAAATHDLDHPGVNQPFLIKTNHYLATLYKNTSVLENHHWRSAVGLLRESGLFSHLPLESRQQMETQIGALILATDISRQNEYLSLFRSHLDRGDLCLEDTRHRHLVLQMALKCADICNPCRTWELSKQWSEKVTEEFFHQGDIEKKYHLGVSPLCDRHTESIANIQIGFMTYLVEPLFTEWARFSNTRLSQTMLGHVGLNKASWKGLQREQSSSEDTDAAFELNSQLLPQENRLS
Method in brief: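 PDE7 taken from the soluble fraction of human MOLT-4 T cells (homogenised in pH 7.5 Tris buffer, 100,000×G spin), partially purified on HiTrap Q with a 0–0.8 M NaCl gradient. Inhibition measured as ³H-cAMP hydrolysis, with product separated using Sephadex-QAE in 10 mM HEPES-Na pH 7.0.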

| SMILES | IC50 [1] [µM] | IC50 [2] [µM] |
| --- | --- | --- |
| Cc1nn(C2CCCCC2)c2sc(C(=O)N[C@H]3CC[C@H](CN4C(=O)CNC4=O)C3)cc12 [Example 258, 1-Cyclohexyl-N-{(1S,3S)-3-[(2,5-dioxo-1-imidazolidinyl)methyl]cyclopentyl}-3-methyl-1H-thieno[2,3-c]pyrazole-5-carboxamide] | 4.7 | 0.015 |
| Cc1nn(C2CCOCC2)c2sc(C(=O)Nc3ccc(N4C(=O)CN(C)C4=O)cc3)cc12 [Example 260, 3-Methyl N-[4-(3-methyl-2,5-dioxo-1-imidazolidinyl)phenyl]-1-tetrahydro-2H-pyran-4-yl-1H-thieno[2,3-c]pyrazole-5-carboxamide] | 4.5 | 0.037 |
| Cc1nn(C2CCOCC2)c2sc(C(=O)Nc3ccc(N4CCNC4=O)nc3)cc12 [Example 261] | 1.9 | 0.028 |
| Cc1nn(C2CCCCC2)c2sc(C(=O)Nc3ccc(N4CC[C@@H](O)C4)cc3)cc12 [Example 262, 1-Cyclohexyl-N-{4-[(3R)-3-hydroxypyrrolidinyl]phenyl}-3-methyl-1H-thieno[2,3-c]pyrazole-5-carboxamide] | 3.8 | 0.028 |
| Cc1nn(C2CCCCC2)c2sc(C(=O)Nc3ccc(N4CC[C@@H](O)C4)c(F)c3)cc12 [Example 263, 1-Cyclohexyl-N-{3-fluoro-4-[(3R)-3-hydroxypyrrolidinyl]phenyl}-3-methyl-1H-thieno[2,3-c]pyrazole-5-carboxamide] | 3.5 | 0.054 |
| Cc1nn(C2CCCCC2)c2sc(C(=O)Nc3cccc(S(=O)(=O)N4CCC(O)CC4)c3)cc12 [Example 264, 1-Cyclohexyl-N-{3-[(4-hydroxy-1-piperidinyl)sulfonyl]phenyl}-3-methyl-1H-thieno[2,3-c]pyrazole-5-carboxamide] | 6.3 | 0.081 |
| Cc1nn(C2CCOCC2)c2sc(C(=O)Nc3ccc(N4CCC(O)CC4)c(F)c3)cc12 [Example 268, N-[3-Fluoro-4-(4-hydroxy-piperidinyl)phenyl]-3-methyl-1-tetrahydro-2H-pyran-4-yl-1H-thieno[2,3-c]pyrazole-5-carboxamide] | 4.8 | 0.088 |
| Cc1nn(C2CCCCC2)c2sc(C(=O)N[C@H]3CC[C@H](N4CCOC4=O)CC3)cc12 [Example 270, 1-Cyclohexyl-3-methyl-N-[trans-4-(2-oxo-1,3-oxazolidin-3-yl)-cyclohexyl]-1H-thieno[2,3-c]pyrazole-5-carboxamide] | 1.8 | 0.015 |
| Cc1nn(C2CCCCC2)c2sc(C(=O)N[C@H]3CC[C@H](N4CCNC4=O)CC3)cc12 [Example 271, 1-Cyclohexyl-3-methyl-N-[trans-4-(2-oxo-1-imidazolidinyl)-cyclohexyl]-1H-thieno[2,3-c]pyrazole-5-carboxamide] | 2.1 | 0.0089 |
| Cc1nn(C2CCCCC2)c2sc(C(=O)N[C@H]3CC[C@H](N4C(=O)CCC4=O)CC3)cc12 [Example 273, 1-Cyclohexyl-N-[trans-4-(2,5-dioxo-1-pyrrolidinyl)cyclohexyl]-3-methyl-1H-thieno[2,3-c]pyrazole-5-carboxamide] | 1.6 | 0.014 |
| Cc1nn(C2CCCCC2)c2sc(C(=O)N[C@H]3CC[C@H](N4CCCS4(=O)=O)CC3)cc12 [Example 274, 1-Cyclohexyl-N-[trans-(1,1-dioxide-2-isothiazolidinyl)cyclohexyl]-3-methyl-1H-thieno[2,3-c]pyrazole-5-carboxamide] | 1.7 | 0.0099 |
| Cc1nn(C2CCCCC2)c2sc(C(=O)N[C@H]3CC[C@H](NC(=O)N(C)CC(=O)OCc4ccccc4)CC3)cc12 [Example 275, Benzyl [{[(trans-4-{[(1 cyclohexyl-3-methyl-1H-thieno[2,3-c]pyrazol-5-yl)carbonyl]amino}cyclohexyl)amino]carbonyl}(methyl)amino]acetate] | 1.2 | 0.004 |
| Cc1nn(C2CCCCC2)c2sc(C(=O)NCCN3C(=O)CN(C)C3=O)cc12 [Example 277, 1-Cyclohexyl-3-methyl-N-[2-(3-methyl-2,5-dioxo-1-imidazolidinyl)-ethyl]-1H-thieno[2,3-c]pyrazole-5-carboxamide] | 7.8 | 0.032 |
| Cc1nn(C2CCCCC2)c2sc(C(=O)N[C@H]3CC[C@H](N4CCN(C)C4=O)CC3)cc12 [Example 280] | 1.9 | 0.017 |
| Cc1nn(C2CCCCC2)c2sc(C(=O)NCCN3CCN(C)C3=O)cc12 [Example 302, 1-Cyclohexyl-3-methyl-N-[2-(3-methyl-2-oxo-imidazolidinyl)ethyl]-1H-thieno[2,3-c]pyrazole-5-carboxamide] | 6.1 | 0.06 |

Other lines, results leading:

| IC50 [1] [µM] | IC50 [2] [µM] | SMILES |
| --- | --- | --- |
| 6.8 | 0.066 | Cc1nn(C2CCCCC2)c2sc(C(=O)NCCN3C(=O)CNC3=O)cc12 [Example 305, 1-Cyclohexyl-N-[2-(2,5-dioxo-1-imidazolidinyl)ethyl]-3-methyl-1H-thieno[2,3-c]pyrazole-5-carboxamide] |
| 15 | 0.097 | CCN1C(=O)CN(CCNC(=O)c2cc3c(C)nn(C4CCCCC4)c3s2)C1=O [Example 316, 1-Cyclohexyl-N-[2-(3-ethyl-2,4-dioxo-1-imidazolidinyl)ethyl]-3-methyl-1H-thieno[2,3-c]pyrazole-5-carboxamide] |
| 12 | 0.067 | Cc1nn(C2CCCCC2)c2sc(C(=O)NCCN3CC(=O)N(C)C3=O)cc12 [Example 317, 1-Cyclohexyl-3-methyl-N-[2-(3-methyl-2,4-dioxo-1-imidazolidinyl)-ethyl]-1H-thieno[2,3-c]pyrazole-5-carboxamide] |
| 4 | 0.034 | Cc1nn(C2CCCCC2)c2sc(C(=O)N[C@H](C)CN3C(=O)CNC3=O)cc12 [Example 325, 1-Cyclohexyl-N-[(1R)-2-(2,5-dioxo-1-imidazolidinyl)-1-methylethyl]-3-methyl-1H-thieno[2,3-c]pyrazole-5-carboxamide] |
| 4.9 | 0.029 | CC[C@H](CN1C(=O)CNC1=O)NC(=O)c1cc2c(C)nn(C3CCCCC3)c2s1 [Example 331, 1-Cyclohexyl-N-{(1R)-1-[(2,5-dioxo-1-imidazolidinyl)methyl]propyl}-3-methyl-1H-thieno[2,3-c]pyrazole-5-carboxamide] |
| 5.1 | 0.02 | Cc1nn(C2CCCCC2)c2sc(C(=O)NCC(C)(C)CN3C(=O)CNC3=O)cc12 [Example 339, 1-Cyclohexyl-N-[3-(2,5-dioxo-1-imidazolidinyl)-2,2-dimethylpropyl]-3-methyl-1H-thieno[2,3-c]pyrazole-5-carboxamide] |
| 1.8 | 0.005 | Cc1nn(C2CCCCC2)c2sc(C(=O)Nc3ccc(N4CCNC(=O)C4)cc3)cc12 [Example 341, 1-Cyclohexyl-3-methyl-N-[4-(3-oxo-1-piperazinyl)phenyl]-1H-thieno[2,3-c]pyrazole-5-carboxamide] |
| 4.6 | 0.028 | Cc1nn(C2CCOCC2)c2sc(C(=O)Nc3ccc(N4CCNC(=O)C4)cc3)cc12 [Example 342, 3-Methyl-N-[4(3-oxo-1-piperazinyl)phenyl]-1-tetrahydro-2H-pyran-4-yl-1H-thieno[2,3-c]pyrazole-5-carboxamide] |
| 2.8 | 0.078 | Cc1nn(C2CCOCC2)c2sc(C(=O)N[C@H]3CC[C@H](C(=O)N(C)C)CC3)cc12 [Example 349, N-{trans-4-[(Dimethylamino)carbonyl]cyclohexyl}-3-methyl-1-tetrahydro-2H-pyran-4-yl-1H-thieno[2,3-c]pyrazole-5-carboxamide] |
| 7.9 | 0.057 | CC(=O)N1CCN(C[C@H]2CC[C@H](NC(=O)c3cc4c(C)nn(C5CCOCC5)c4s3)CC2)CC1 [Example 360, N-{trans-4-[(4-Acetyl-1-piperazinyl)methyl]cyclohexyl}-3-methyl-1-tetrahydro-2H-pyran-4-yl-1H-thieno[2,3-c]pyrazole-5-carboxamide] |
| 4.1 | 0.0087 | Cc1nn(C2CCCCC2)c2sc(C(=O)Nc3ccc(N4CCC(O)CC4)nc3)cc12 [Example 370, 1-Cyclohexyl-N-[6-(4-hydroxy-1-piperidinyl)-3-pyridinyl]-3-methyl-1H-thieno[2,3-c]pyrazole-5-carboxamide] |
| 3.6 | 0.017 | Cc1nn(C2CCCCC2)c2sc(C(=O)Nc3ccc(N4CCC(O)CC4)c(F)c3F)cc12 [Example 371, 1-Cyclohexyl-N-[2,3-difluoro-4-(4-hydroxy-1-piperidinyl)phenyl]-3-methyl-1H-thieno[2,3-c]pyrazole-5-carboxamide] |
| 4 | 0.011 | Cc1cc(NC(=O)c2cc3c(C)nn(C4CCCCC4)c3s2)ccc1N1CCC(O)CC1 [Example 372] |
| 3.4 | 0.0045 | Cc1nn(C2CCCCC2)c2sc(C(=O)Nc3ccc(N4CCC(O)CC4)c(C#N)c3)cc12 [Example 373, N-[3-Cyano-4-(4-hydroxy-1-piperidinyl)phenyl]-cyclohexyl-3-methyl-1H-thieno[2,3-c]pyrazole-5-carboxamide] |
| 0.93 | 0.0072 | Cc1nn(C2CCCCC2)c2sc(C(=O)Nc3ccc(N4CCC(O)CC4)c(C(=O)O)c3)cc12 [Example 375] |
| 2.5 | 0.044 | Cc1nn(C2CCCCC2)c2sc(C(=O)Nc3ccc(C(=O)N4CCC(O)CC4)nc3)cc12 [Example 378, 1-Cyclohexyl-N-{6-[(4-hydroxy-1-piperidinyl)carbonyl]-3-pyridinyl}-3-methyl-1H-thieno[2,3-c]pyrazole-5-carboxamide] |
